The source of these data is paper PMC2873968, “Novel protein kinase D inhibitors cause potent arrest in prostate cancer cell growth and motility” (BMC Chemical Biology, 2010).

The test system of series [1] is PC3 cells. As to the kind of experiment: Wound healing assay. In kind it is cell-based. The conditions noted are these: 25 μM, 24 h. The protocol:
(§1) Wound-induced migration was measured as described previously. Briefly, PC3 or DU145 cells were grown to confluence in 6-well plates. Migration was initiated by scraping the monolayer with a pipette tip, creating a "wound." The indicated concentration of compound was added to the media, and the wound was imaged immediately under an inverted phase-contrast microscope with 10× objective. After 24 h, cells were fixed in methanol and stained with 1% crystal violet, and a final image was taken. The wound gap was measured, and % wound healing was calculated. The average % wound healing was determined based on at least 9 measurements of the wound gap.
(§2) The analogs inhibited wound healing in prostate cancer cells. DU145 cells (A) or PC3 cells (B) were grown to confluence in 6-well plates. The monolayer was wounded and imaged immediately. Cells were then treated with either vehicle (DMSO) or analogs at indicated concentration for 24 hours. Cells were then fixed and stained with 0.5% crystal violet. Percentage wound closure was calculated as an average of 9 determinations for each concentration/compound as described under "Methods." Data shown are the mean ± S.E.M. for three independent experiments. Statistical significance versus the DMSO control was determined by unpaired t-test in GraphPad Prism V. ns, not statistically significant; *, p < 0.05; **, p < 0.01; ***, p < 0.001.

Series [2] has as its system DU145 cells. As to the kind of experiment: Wound healing assay. In kind it is cell-based. The note with it: 25 μM, 24 h. The protocol: as §1, §2
Series [3] deals with T1, recombinant human PKD3 (Homo sapiens, UniProt O94806).
T1 construct: purchased Enzo Life Sciences
T1 sequence (O94806 1-890): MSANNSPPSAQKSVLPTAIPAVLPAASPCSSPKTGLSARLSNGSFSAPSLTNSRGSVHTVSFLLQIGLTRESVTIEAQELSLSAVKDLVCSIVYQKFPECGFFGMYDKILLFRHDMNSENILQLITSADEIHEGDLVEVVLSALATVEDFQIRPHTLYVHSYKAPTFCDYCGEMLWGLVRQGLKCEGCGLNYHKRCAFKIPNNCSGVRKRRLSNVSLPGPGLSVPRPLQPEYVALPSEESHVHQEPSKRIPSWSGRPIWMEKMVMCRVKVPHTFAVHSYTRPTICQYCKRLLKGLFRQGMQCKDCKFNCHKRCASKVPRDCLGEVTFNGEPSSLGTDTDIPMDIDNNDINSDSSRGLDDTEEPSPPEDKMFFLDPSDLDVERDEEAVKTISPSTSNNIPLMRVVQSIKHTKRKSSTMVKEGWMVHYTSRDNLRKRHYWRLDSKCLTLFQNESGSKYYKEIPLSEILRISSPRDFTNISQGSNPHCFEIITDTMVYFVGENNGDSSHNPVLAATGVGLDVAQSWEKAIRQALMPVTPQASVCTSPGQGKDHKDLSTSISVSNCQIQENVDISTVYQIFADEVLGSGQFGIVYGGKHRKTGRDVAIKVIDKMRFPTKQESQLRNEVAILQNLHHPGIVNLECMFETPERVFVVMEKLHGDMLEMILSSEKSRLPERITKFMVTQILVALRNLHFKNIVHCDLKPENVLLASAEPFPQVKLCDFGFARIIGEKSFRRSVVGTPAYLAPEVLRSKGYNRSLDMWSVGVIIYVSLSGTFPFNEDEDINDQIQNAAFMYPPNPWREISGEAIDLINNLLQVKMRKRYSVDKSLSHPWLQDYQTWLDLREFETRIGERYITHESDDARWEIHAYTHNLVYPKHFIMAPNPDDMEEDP
The series is described as follows: In vitro radiometric PKD kinase assay. In kind it is biochemical. The conditions noted are these: for IC50: radiometric kinase assay, mean ± S.E.M. Here is the method: In vitro radiometric kinase assays were conducted as previously described. Briefly, 1 μCi [γ-^32P] ATP (PerkinElmer Life Sciences), 70 μM ATP, 50 ng purified recombinant human PKD1 (Biomol International, Plymouth Meeting, PA), PKD2 (SignalChem, Richmond, BC, Canada), or CAMKIIα (Enzo Life Sciences) or 75 ng PKD3 (Enzo Life Sciences), and 2.5 μg syntide-2 (Sigma) in 50 μl kinase buffer containing 50 mM Tris-HCl, pH 7.5, 4 mM MgCl2, and 10 mM β-mercaptoethanol. For the CAMK assay, 0.5 mM CaCl2 and 30 ng/μl calmodulin were pre-incubated for 10 min on ice, and then added to each reaction mixture. The reaction was incubated at 30°C for 10 min, and 25 μl of the reaction mixture was then spotted onto Whatman P81 filter paper (Whatman Inc., Clifton, NJ). The filter papers were washed 3 times in 0.5% phosphoric acid, air-dried, and counted using a Beckman LS6500 multipurpose scintillation counter (Beckman).
The in vitro inhibitory activities of the novel compounds toward PKD were determined using radiometric PKD kinase activity assays. Recombinant human PKD1, -2, or -3 was incubated with the substrate, syntide-2, in the presence of 10 different concentrations of each compound. IC50 values were determined for each compound by plotting percent PKD activity versus compound concentration for each point.

Series [4] has as its target PKCθ (Homo sapiens, UniProt Q04759). The series is described as follows: Kinase profiling, single-dose in vitro kinase assay (Caliper Life Sciences). The note with it: read-out: Average % Inhibition PKCθ.
Series [5] addresses IGF1R (Homo sapiens, UniProt P08069). The series is described as above. The conditions noted are these: read-out: Average % Inhibition IGF1R.
Series [6] addresses PDK1 (Homo sapiens, UniProt O15530). The description is as above. The conditions noted are these: read-out: Average % Inhibition PDK1.
The target of series [7] is Ikkb (Homo sapiens, UniProt O14920). The description is as above. The conditions noted are these: read-out: Average % Inhibition Ikkb.
In series [8] the target is EGFR (Homo sapiens, UniProt P00533). The description is as above. The note with it: read-out: Average % Inhibition EGFR.
For series [9], the target named is IRAK4 (Homo sapiens, UniProt Q9NWZ3). Described as above. The conditions noted are these: read-out: Average % Inhibition IRAK4.
Series [10] concerns the target PIM2 (Homo sapiens, UniProt Q9P1W9). The description is as above. The conditions noted are these: read-out: Average % Inhibition PIM2.
Series [11] concerns the target T2, PKCβI (Homo sapiens, UniProt P05771).
T2 construct: purchased Cell Signaling Technology
More on the design: method as in PMID 18829454. The conditions noted are these: previously reported; cited from earlier work.

In series [12] the test system is PC3 cells. The series is described as follows: Cyclin D1 and cyclin D3 levels (Western blot). In kind it is cell-based. Background: In western blotting, separated proteins are transferred to a membrane and probed.
Series [13] deals with AMPK. The series is described as follows: Kinase profiling, single-dose in vitro kinase assay (Caliper Life Sciences). The conditions noted are these: 10 μM.

Chain of Ikkb (O14920 whole entry): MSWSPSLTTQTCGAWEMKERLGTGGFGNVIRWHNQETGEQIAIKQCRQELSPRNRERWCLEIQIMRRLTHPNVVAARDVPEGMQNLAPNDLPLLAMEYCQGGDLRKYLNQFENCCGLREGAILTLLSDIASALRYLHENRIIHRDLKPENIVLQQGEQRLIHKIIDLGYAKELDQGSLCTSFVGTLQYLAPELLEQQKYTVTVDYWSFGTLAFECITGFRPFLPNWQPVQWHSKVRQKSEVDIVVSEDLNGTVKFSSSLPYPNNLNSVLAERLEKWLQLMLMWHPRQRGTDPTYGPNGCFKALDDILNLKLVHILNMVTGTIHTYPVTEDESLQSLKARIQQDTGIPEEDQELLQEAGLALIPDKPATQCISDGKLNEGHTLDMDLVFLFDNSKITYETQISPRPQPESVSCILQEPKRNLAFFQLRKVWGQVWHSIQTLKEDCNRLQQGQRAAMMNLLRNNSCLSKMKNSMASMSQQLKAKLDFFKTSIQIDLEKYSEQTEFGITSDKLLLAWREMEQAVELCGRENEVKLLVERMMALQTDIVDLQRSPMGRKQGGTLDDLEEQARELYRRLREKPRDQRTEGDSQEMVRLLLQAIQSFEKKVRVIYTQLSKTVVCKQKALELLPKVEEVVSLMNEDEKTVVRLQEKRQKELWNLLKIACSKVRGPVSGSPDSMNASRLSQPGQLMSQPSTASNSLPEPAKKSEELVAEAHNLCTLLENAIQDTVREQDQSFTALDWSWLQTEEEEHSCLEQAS
Chain of IGF1R (P08069 31-1367): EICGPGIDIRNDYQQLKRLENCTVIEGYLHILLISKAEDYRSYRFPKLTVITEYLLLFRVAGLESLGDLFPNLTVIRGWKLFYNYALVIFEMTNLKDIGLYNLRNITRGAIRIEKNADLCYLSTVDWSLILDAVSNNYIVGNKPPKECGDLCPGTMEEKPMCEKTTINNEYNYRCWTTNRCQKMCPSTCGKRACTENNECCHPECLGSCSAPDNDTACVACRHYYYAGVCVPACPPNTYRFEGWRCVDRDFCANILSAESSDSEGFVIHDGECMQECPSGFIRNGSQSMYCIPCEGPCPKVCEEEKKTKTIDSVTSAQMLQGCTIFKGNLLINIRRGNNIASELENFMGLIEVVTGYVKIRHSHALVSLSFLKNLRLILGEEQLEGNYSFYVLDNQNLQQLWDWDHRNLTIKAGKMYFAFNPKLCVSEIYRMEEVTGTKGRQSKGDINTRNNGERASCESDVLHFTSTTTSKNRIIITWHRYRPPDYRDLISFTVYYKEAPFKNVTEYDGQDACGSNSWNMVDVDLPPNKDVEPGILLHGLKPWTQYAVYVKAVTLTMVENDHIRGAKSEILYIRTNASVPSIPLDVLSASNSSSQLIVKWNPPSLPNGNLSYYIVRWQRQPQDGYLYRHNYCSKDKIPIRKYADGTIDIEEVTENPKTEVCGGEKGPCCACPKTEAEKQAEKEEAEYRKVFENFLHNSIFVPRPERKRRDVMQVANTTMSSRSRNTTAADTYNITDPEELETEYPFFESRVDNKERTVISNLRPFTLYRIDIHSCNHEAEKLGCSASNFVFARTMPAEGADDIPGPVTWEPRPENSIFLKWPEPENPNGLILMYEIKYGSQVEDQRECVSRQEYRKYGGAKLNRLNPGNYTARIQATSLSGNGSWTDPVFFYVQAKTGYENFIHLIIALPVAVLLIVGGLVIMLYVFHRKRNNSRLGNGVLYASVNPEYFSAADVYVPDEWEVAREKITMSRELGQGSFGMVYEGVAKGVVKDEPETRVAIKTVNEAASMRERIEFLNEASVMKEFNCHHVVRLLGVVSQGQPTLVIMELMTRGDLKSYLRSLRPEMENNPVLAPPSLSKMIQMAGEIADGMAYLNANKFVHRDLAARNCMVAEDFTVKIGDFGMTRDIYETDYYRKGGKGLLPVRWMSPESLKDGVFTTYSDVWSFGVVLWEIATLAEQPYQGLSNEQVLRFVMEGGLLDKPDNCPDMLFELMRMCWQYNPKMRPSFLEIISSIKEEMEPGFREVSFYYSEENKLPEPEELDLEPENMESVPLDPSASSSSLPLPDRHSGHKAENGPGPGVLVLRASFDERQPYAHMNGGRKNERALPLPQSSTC
Chain of PIM2 (Q9P1W9 whole entry): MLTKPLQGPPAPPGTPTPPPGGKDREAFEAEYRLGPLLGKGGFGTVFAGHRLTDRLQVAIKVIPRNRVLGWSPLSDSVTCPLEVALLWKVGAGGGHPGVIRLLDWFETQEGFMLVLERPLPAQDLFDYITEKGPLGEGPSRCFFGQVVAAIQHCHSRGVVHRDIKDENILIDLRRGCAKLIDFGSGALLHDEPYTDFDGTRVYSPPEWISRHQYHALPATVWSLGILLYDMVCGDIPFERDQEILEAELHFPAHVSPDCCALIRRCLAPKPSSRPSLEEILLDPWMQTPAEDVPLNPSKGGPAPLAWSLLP
Chain of EGFR (P00533 25-1210): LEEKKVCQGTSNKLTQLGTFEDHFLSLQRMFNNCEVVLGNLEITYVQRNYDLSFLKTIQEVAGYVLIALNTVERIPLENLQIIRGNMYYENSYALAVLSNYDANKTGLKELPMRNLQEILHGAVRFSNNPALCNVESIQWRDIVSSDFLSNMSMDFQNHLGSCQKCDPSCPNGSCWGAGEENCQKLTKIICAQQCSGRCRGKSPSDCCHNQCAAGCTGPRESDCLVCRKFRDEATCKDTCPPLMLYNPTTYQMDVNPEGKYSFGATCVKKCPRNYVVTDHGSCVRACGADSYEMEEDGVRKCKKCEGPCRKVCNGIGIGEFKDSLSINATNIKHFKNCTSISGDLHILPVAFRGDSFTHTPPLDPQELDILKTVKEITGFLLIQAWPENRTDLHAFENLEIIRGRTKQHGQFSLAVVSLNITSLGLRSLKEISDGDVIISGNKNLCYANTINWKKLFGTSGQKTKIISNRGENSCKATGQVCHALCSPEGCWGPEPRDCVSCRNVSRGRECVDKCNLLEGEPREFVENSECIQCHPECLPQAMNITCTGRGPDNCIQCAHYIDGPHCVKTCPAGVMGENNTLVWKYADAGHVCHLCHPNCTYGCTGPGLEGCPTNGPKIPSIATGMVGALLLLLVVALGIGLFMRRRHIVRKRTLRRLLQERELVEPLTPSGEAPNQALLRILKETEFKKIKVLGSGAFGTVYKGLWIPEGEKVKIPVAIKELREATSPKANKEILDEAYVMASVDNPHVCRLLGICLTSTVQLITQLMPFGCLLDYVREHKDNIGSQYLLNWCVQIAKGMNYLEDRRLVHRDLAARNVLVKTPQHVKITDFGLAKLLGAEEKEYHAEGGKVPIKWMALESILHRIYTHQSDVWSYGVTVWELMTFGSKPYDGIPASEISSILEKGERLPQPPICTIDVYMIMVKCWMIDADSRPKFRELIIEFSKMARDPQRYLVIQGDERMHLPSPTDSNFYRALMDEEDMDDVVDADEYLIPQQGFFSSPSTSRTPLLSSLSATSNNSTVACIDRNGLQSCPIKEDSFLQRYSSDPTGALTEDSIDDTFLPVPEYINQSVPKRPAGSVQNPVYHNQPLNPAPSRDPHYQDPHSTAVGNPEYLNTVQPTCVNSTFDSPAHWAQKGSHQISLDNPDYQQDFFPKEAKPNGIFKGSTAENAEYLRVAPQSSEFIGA
Chain of PKCθ (Q04759 whole entry): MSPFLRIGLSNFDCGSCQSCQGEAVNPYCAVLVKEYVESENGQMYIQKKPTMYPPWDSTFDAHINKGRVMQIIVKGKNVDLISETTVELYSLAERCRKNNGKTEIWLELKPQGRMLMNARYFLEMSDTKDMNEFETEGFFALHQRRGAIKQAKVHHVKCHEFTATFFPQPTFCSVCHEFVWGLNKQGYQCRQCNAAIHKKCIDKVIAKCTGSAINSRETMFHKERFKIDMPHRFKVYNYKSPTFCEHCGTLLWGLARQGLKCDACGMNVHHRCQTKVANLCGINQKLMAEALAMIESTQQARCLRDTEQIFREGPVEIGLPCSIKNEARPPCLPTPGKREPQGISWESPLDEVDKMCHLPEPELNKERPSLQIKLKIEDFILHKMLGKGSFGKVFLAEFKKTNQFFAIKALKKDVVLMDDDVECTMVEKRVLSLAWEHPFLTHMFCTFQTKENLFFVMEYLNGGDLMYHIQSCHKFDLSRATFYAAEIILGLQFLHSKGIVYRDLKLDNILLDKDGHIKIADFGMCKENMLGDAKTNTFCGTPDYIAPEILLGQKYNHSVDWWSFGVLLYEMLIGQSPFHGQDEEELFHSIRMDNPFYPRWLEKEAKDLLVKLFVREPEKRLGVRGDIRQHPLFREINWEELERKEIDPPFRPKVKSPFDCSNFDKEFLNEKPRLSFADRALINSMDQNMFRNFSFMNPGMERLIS
T2 sequence (P05771 whole entry): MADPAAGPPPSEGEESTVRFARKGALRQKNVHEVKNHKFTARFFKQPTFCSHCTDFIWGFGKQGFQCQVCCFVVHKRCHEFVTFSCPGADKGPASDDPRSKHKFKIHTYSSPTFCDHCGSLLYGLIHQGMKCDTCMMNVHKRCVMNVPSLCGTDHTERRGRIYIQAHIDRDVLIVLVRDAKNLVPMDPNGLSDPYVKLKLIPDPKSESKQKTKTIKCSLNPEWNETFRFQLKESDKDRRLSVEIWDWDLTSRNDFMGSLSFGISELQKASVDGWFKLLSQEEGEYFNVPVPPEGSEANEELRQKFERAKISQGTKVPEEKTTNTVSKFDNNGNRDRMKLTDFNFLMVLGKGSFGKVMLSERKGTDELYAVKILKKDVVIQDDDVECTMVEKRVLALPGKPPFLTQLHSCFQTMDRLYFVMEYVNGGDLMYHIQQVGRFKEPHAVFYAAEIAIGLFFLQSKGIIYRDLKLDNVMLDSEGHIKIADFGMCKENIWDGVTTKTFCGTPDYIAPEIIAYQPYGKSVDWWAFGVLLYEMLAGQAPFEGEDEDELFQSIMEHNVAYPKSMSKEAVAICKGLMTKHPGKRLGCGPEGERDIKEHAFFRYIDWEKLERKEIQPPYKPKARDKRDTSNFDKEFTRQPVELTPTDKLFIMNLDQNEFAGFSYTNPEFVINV

By IC50 is commonly meant the concentration that gives 50% inhibition. On to `COc1ccc2sc3c(c2c1)SCCNC3=O` [kb-NB165-09], for which the wound closure in [1] and in series [2] was 25-35% in each case. Further, the IC50 in [3] was 98.5 ± 15.3 nM.
What is called inhibition is the relative decrease from the control value, in per cent. On to `O=C1NCCCc2c1oc1ccc(O)cc21` [CID755673, 7-Hydroxy-2,3,4,5-tetrahydro-[1]benzoxolo[2,3-c]azepin-1-one], for which the inhibition at 10 µM in [4] is 32%; in series [5], -2%; in [6] it was 22%; in [7], 49%; in series [8], 11%; in series [9] it was 0%. In addition, the inhibition at 10 µM in series [10] came to 6%. In addition, the “inhibition of PKCβI” value in series [11] is reported as “did not inhibit”. Moreover, in series [12] (48 hrs), the “cyclin D1 and D3 levels” value is “induced cyclin D1 and D3 expression in a concentration-dependent manner”. In addition, the “Average % Inhibition AMPK” value in [13] came to 35%.
As to `O=C1NCCSc2c1sc1ccc(O)c(I)c21` [kb-NB165-31], the wound closure in series [1] and in series [2] was 55-60% throughout. Besides, in series [3], the IC50 worked out at 91.1 ± 17.2 nM.
For the compound `COc1ccc2sc3c(c2c1)SCCCNC3=O` [kb-NB184-02], the IC50 in series [3] worked out at 325 ± 39 nM.
Take `O=C1NCCSc2c1sc1ccc(O)cc21` [kb-NB142-70]: the wound closure in series [1] and in series [2] was 25-35% each time. Moreover, the “fold stronger inhibition of PKD3 than CID755673” value in series [3] is “about 4 fold”. The IC50 in series [3] was 53.2 ± 3.5 nM.
Take `O=C1NCCCSc2c1sc1ccc(O)cc21` [kb-NB165-92]: in series [3], the “fold greater inhibition of PKD3 than PKD1 or -2” value was “about 2 fold” and the IC50 was determined as 58.8 ± 7.3 nM. In addition, the “change of potency for PKD3” value in series [3] (versus kb-NB142-70) was “not altering potency”. In series [12] (10 μM), the cell death entry was “caused significant cell death”.
